Key:
[1] = Contact angles by tilting plane method (sessile drop on tilted surface); type: physicochemical; details: sessile drop of water or buffered aqueous medium (50 mM sodium phosphate, pH 6.8) on tilted surface of the substance
Excerpt: The tilting plane method of measuring contact angles involves slowly tilting a surface or plane of a substance the contact angle of which is to be determined until a sessile drop on the plane begins to move in the downhill direction. At that time the angle between the plane and the downhill tangent of the drop at the plane is the advancing contact angle, and the angle between the plane and the uphill tangent of the drop at the plane is the receding contact angle. A procedure for determining the contact angles of a therapeutic component is as follows. A small batch of Compound III weighing approximately 30 g is micronized in a ball mill for three days using 5-mm stainless steel balls. The resulting particles have an average diameter of 8 μm. A 200-mg sample of the micronized Compound III is compressed into a wafer 12 mm in diameter and 2 mm thick using a Carver press. The wafer is then glued on to a plastic board. Separately, a 10 milliliter aqueous solution is prepared containing 50 mM sodium phosphate buffer at pH 6.8. A drop of a blue food dye is added to the solution to aid visualization. A 40 μL drop of the blue aqueous solution is placed on top of the Compound III wafer on a plastic board resting at a horizontal position. The plastic board and the wafer are then slowly tilted from their horizontal position in front of a continuous shooting camera. The process stops after the blue aqueous drop has run down the wafer. The images that show the shapes of the liquid drop just prior to it starting to run down the wafer are analyzed and the contact angles measured. Alternatively, both the advancing and receding contact angles can be measured using a KSV instrument (model CAM 200) with a tilt stage. The instrument is fully computer controlled, and it captures the video image and performs full analysis of the advancing and receding contact angles.

[2] = Solubility in water at 25° C.; type: physicochemical; details: for solubility: water; for solubility in water: unit given as mg
[3] = Dissolution in aqueous solution buffered to pH 6.8 over time (FIG. 1, FIG. 2); type: physicochemical; details: 100 mg sample with excipients in buffer pH 6.8, FIG. 1 curves
Protocol: Samples A and B are in the form of particles having an average diameter of about 150 microns. Samples C and D are in the form of particles having an average diameter of about 10 microns.
An aqueous solution buffered with a buffer to a pH of 6.8 is provided. A quantity of a mixture containing conventional pharmaceutically acceptable excipients is provided. In addition, a quantity of sodium dodecyl sulfate is provided.
A mixture of Sample A (100 mg) and excipients is formed and is placed in 900 ml of the aqueous solution.
A mixture of Sample C (100 mg) and excipients is formed and is placed in another 900 ml of the aqueous solution. Test samples of each of the aqueous solutions are taken at various times after each of the mixtures containing Compound III (Samples A and C) is placed in the aqueous solution. Each of these test samples is analyzed for Compound III concentration. Using these test results over a period of 240 minutes, relationships between the percentage of Sample A and Sample C dissolved and time are developed. These tests are run a total of 3 times (n=3).
Each of Samples B and D is tested in a substantially similar way. However, when testing Samples B and […], 1% based on weight of the mixture of Sample and excipient mixture, of sodium dodecyl sulfate is included in the mixture. Each of these tests is run a total of 3 times. […]

[4] = at doses 10-fold greater than the dose required to produce a 50% reduction in one or more symptoms; cited from earlier work

Structure (SMILES) | advancing contact angle [1] | receding contact angle [1] | solubility [2] | rate of dissolution (comparison in words) [3] | solubility in water [2] | sedation [4]
S=c1[nH]cc(CC2CC=CC2)[nH]1 [Compound III] | 116 ° | 73 ° | < 500 µg/mL | relatively reduced rate of dissolution in water | – | –
O=c1[nH]cc(CC2Cc3ccc(F)cc3C2)[nH]1 (centres unmarked) [Compound II] | greater than 90 ° | greater than 45 ° | – | – | less than 0.5 mg | –
Cc1cccc([C@@H](C)c2c[nH]c(=S)[nH]2)c1C [Compound IV] | greater than 90 ° | greater than 45 ° | – | – | less than 0.5 mg | –
O=C1c2ccccc2CCC1Cc1c[nH]c(=S)[nH]1 (centres unmarked) [Compound I] | greater than 90 ° | greater than 45 ° | < 500 µg/mL | – | – | –
Cc1cccc([C@H](C)c2c[nH]cn2)c1C [dexmeditomidine] | – | – | – | – | – | completely sedating
